Values after ≈ are worked out from the molar mass of the structure shown. Read-outs that look alike come from different tables or passages of the source.
Tests used:
Assay type in all cases: cell-based
[1] = system: M. morcanii (1), E. cloacae (2) and S. marcescens (2); test: In vitro MIC, two-fold serial agar dilution in Mueller-Hinton agar, GnII strains; details: Enterobacter cloacae, read-out: Geometric mean of MIC, GnII
Protocol: (§1) The in vitro antibacterial activity of the parent cephalosporanic acids of Formula I wherein R^4 is hydrogen is shown in Table 1 in terms of geometric mean of the Minimum Inhibitory Concentrations (MIC's) which were determined by the two-fold serial agar dilution method in Mueller-Hinton agar against 25 strains of test organisms in five groups.
GnII: M. morcanii (1), E. cloacae (2) and S. marcescens (2)

[2] = system: Cephalothin(CET)sensitive E. coli (2 strains), K. pneumoniae (1) an P. mirabilis (2); test: In vitro MIC, two-fold serial agar dilution in Mueller-Hinton agar, GnIa strains; details: 5 strains, read-out: Geometric mean of MIC, GnIa
Protocol: as §1
GnIa: Cephalothin(CET)sensitive E. coli (2 strains), K. pneumoniae (1) an […]

Enterobacter aerogenes = test: In vitro MIC, Mueller-Hinton agar, inoculum 10^6 cells/ml; details: Klebsiella aerogenes
Source text: (§2) Table 6 is a comparison of the in vitro antibacterial activities of Compound 29 and the vinyl homolog thereof FK-482 against clinically important pathogens. Thirty-seven organisms were more than 4-fold more susceptible to Compound 29 than to FK-482. FK-482 has the following formula and is described by Takaya, et al. in U.S. Pat. No. 4,559,334 patented Dec. 17, 1985 (filed Oct. 20, 1983). [drawing 14]
(§3) *; Geometric mean of MIC (μg/ml)
(§4) Mueller-Hinton agar Inoculum size; 10^6 cells/ml

Serratia marcescens = test: as above
Source text: as §2, §3, §4

Proteus vulgaris = test: as above
Source text: as §2, §3, §4

Proteus mirabilis = test: as above
Source text: as §2, §3, §4

Citrobacter freundii = test: as above
Source text: as §2, §3, §4

Providencia rettgeri = test: as above
Source text: as §2, §3, §4

Serratia species = test: as above
Source text: as §2, §3, §4

Morganella morganii = test: as above
Source text: as §2, §3, §4

Enterobacter cloacae = test: as above
Source text: as §2, §3, §4

[3] = system: Penicillin(PC)sensitive S. aureus; test: In vitro MIC, two-fold serial agar dilution in Mueller-Hinton agar, Gp-Ia strains; details: Staphylococcus aureus; GpIa, 5 strains; read-out: Geometric mean of MIC, GpIa
Protocol: as §1
Gp-Ia: Penicillin(PC)sensitive S. aureus

PCresistant S. aureus = test: In vitro MIC, two-fold serial agar dilution in Mueller-Hinton agar, GpIb strains; details: Staphylococcus aureus, 5 strains, read-out: Geometric mean of MIC, GpIb
Protocol: as §1
GpIb: PCresistant S. aureus

C/C=C\C1=C(C(=O)O)N2C(=O)[C@@H](NC(=O)/C(=N\O)c3csc(N)n3)[C@H]2SC1 [Compound 29, 7β-[(Z)-2-(2-aminothiazol-4-yl)-2-(hydroxyimino)acetamido]-3-[(Z)-prop-1-en-1-yl]-3-cephem-4-carboxylic acid]
MIC [1]: 6.3 µg/mL (≈ 15.4 µM) | MIC [2]: 0.066 µg/mL (≈ 0.161 µM) | MIC (Enterobacter aerogenes; (GM) of the Enterobacter aerogenes strains, read-out: Geometric mean of MIC): 4.9 µg/mL (≈ 12 µM) | MIC (Enterobacter aerogenes; strain A20940, read-out: MIC): > 50 µg/mL | MIC (Enterobacter aerogenes; strain A20941, read-out: MIC): 1.6 µg/mL (≈ 3.91 µM) | MIC (Enterobacter aerogenes; strain A20943, read-out: MIC): 0.8 µg/mL (≈ 1.95 µM) | MIC (Enterobacter aerogenes; strain A20958, read-out: MIC): 6.3 µg/mL (≈ 15.4 µM) | MIC (Enterobacter aerogenes; strain A20961, read-out: MIC): 3.1 µg/mL (≈ 7.57 µM) | MIC (Enterobacter aerogenes; strain A20966, read-out: MIC): 6.3 µg/mL (≈ 15.4 µM) | MIC (Enterobacter aerogenes; strain A20971, read-out: MIC): 1.6 µg/mL (≈ 3.91 µM) | MIC (Enterobacter aerogenes; strain A20985, read-out: MIC): > 50 µg/mL | MIC (Enterobacter aerogenes; strain A20994, read-out: MIC): 6.3 µg/mL (≈ 15.4 µM) | MIC (Enterobacter aerogenes; strain A20996, read-out: MIC): 0.8 µg/mL (≈ 1.95 µM) | MIC (Enterobacter aerogenes; strain A21013, read-out: MIC): 3.1 µg/mL (≈ 7.57 µM) | MIC (Enterobacter aerogenes; strain A21036, read-out: MIC): > 50 µg/mL | MIC (Enterobacter aerogenes; strain A21037, read-out: MIC): 0.4 µg/mL (≈ 0.977 µM) | MIC (Enterobacter aerogenes; strain A21038, read-out: MIC): 0.8 µg/mL (≈ 1.95 µM) | MIC (Enterobacter aerogenes; strain A21039, read-out: MIC): 6.3 µg/mL (≈ 15.4 µM) | MIC (Enterobacter aerogenes; strain A21043, read-out: MIC): 12.5 µg/mL (≈ 30.5 µM) | MIC (Enterobacter aerogenes; strain A21044, read-out: MIC): 25 µg/mL (≈ 61.1 µM) | MIC (Enterobacter aerogenes; strain A21118, read-out: MIC): 50 µg/mL (≈ 122 µM) | MIC (Enterobacter aerogenes; strain A21120, read-out: MIC): 6.3 µg/mL (≈ 15.4 µM) | MIC (Enterobacter aerogenes; strain A21130-1, read-out: MIC): 6.3 µg/mL (≈ 15.4 µM) | MIC (Enterobacter aerogenes; strain A21131, read-out: MIC): 0.8 µg/mL (≈ 1.95 µM) | MIC (Enterobacter aerogenes; strain A21152, read-out: MIC): 0.8 µg/mL (≈ 1.95 µM) | MIC (Enterobacter aerogenes; strain A21155, read-out: MIC): 3.1 µg/mL (≈ 7.57 µM) | MIC (Enterobacter aerogenes; strain A21158, read-out: MIC): 6.3 µg/mL (≈ 15.4 µM) | MIC (Enterobacter aerogenes; strain A21503, read-out: MIC): 3.1 µg/mL (≈ 7.57 µM) | MIC (Serratia marcescens; (GM) of the Serratia marcescens strains, read-out: Geometric mean of MIC): 13 µg/mL (≈ 31.7 µM) | MIC (Serratia marcescens; strain A20019, read-out: MIC): 1.6 µg/mL (≈ 3.91 µM) | MIC (Serratia marcescens; strain A20222, read-out: MIC): 3.1 µg/mL (≈ 7.57 µM) | MIC (Serratia marcescens; strain A20333, read-out: MIC): > 50 µg/mL | MIC (Serratia marcescens; strain A20334, read-out: MIC): > 50 µg/mL | MIC (Serratia marcescens; strain A20335, read-out: MIC): 1.6 µg/mL (≈ 3.91 µM) | MIC (Serratia marcescens; strain A20336, read-out: MIC): 3.1 µg/mL (≈ 7.57 µM) | MIC (Serratia marcescens; strain A20442, read-out: MIC): 3.1 µg/mL (≈ 7.57 µM) | MIC (Serratia marcescens; strain A20459, read-out: MIC): > 50 µg/mL | MIC (Serratia marcescens; strain A20460, read-out: MIC): 12.5 µg/mL (≈ 30.5 µM) | MIC (Serratia marcescens; strain A20461, read-out: MIC): > 50 µg/mL | MIC (Proteus vulgaris; (GM) of the Proteus vulgaris strains, read-out: Geometric mean of MIC): 1 µg/mL (≈ 2.44 µM) | MIC (Proteus vulgaris; strain A 9436, read-out: MIC): 0.1 µg/mL (≈ 0.244 µM) | MIC (Proteus vulgaris; strain A 9526, read-out: MIC): 3.1 µg/mL (≈ 7.57 µM) | MIC (Proteus vulgaris; strain A 9699, read-out: MIC): 1.6 µg/mL (≈ 3.91 µM) | MIC (Proteus vulgaris; strain AKH-26, read-out: MIC): > 50 µg/mL | MIC (Proteus vulgaris; strain HX-19 MS-1, read-out: MIC): 0.1 µg/mL (≈ 0.244 µM) | MIC (Proteus vulgaris; strain OX-19 MS-1, read-out: MIC): 0.2 µg/mL (≈ 0.488 µM) | MIC (Proteus mirabilis; (GM) of the Proteus mirabilis strains, read-out: Geometric mean of MIC): 0.084 µg/mL (≈ 0.205 µM) | MIC (Proteus mirabilis; IFO3849, strain IFO 3849 MS-1, read-out: MIC): 0.1 µg/mL (≈ 0.244 µM) | MIC (Proteus mirabilis; strain A 9554, read-out: MIC): 0.1 µg/mL (≈ 0.244 µM) | MIC (Proteus mirabilis; strain A 9702, read-out: MIC): 0.05 µg/mL (≈ 0.122 µM) | MIC (Proteus mirabilis; strain A 9716, read-out: MIC): 0.1 µg/mL (≈ 0.244 µM) | MIC (Proteus mirabilis; strain A20119, read-out: MIC): 0.05 µg/mL (≈ 0.122 µM) | MIC (Proteus mirabilis; strain A20342, read-out: MIC): 0.1 µg/mL (≈ 0.244 µM) | MIC (Proteus mirabilis; strain A20454, read-out: MIC): 0.1 µg/mL (≈ 0.244 µM) | MIC (Proteus mirabilis; strain A21222, read-out: MIC): 0.1 µg/mL (≈ 0.244 µM) | MIC (Citrobacter freundii; (GM) of the Citrobacter freundii strains, read-out: Geometric mean of MIC): 1.7 µg/mL (≈ 4.15 µM) | MIC (Citrobacter freundii; strain A21312, read-out: MIC): > 50 µg/mL | MIC (Citrobacter freundii; strain A22140, read-out: MIC): 1.6 µg/mL (≈ 3.91 µM) | MIC (Citrobacter freundii; strain A22141, read-out: MIC): 1.6 µg/mL (≈ 3.91 µM) | MIC (Citrobacter freundii; strain A22142, read-out: MIC): 0.8 µg/mL (≈ 1.95 µM) | MIC (Citrobacter freundii; strain A22160, read-out: MIC): 0.8 µg/mL (≈ 1.95 µM) | MIC (Citrobacter freundii; strain A22161, read-out: MIC): 0.8 µg/mL (≈ 1.95 µM) | MIC (Citrobacter freundii; strain A22166, read-out: MIC): 0.8 µg/mL (≈ 1.95 µM) | MIC (Citrobacter freundii; strain A22175, read-out: MIC): 0.8 µg/mL (≈ 1.95 µM) | MIC (Citrobacter freundii; strain A22176, read-out: MIC): 0.8 µg/mL (≈ 1.95 µM) | MIC (Citrobacter freundii; strain A22177, read-out: MIC): 3.1 µg/mL (≈ 7.57 µM) | MIC (Providencia rettgeri; (GM) of the Providencia rettgeri strains, read-out: Geometric mean of MIC): 0.015 µg/mL (≈ 0.0366 µM) | MIC (Providencia rettgeri; IFO3850, strain IFO 3850 MS-1, read-out: MIC): < 0.0063 µg/mL | MIC (Providencia rettgeri; strain A 9637, read-out: MIC): < 0.0063 µg/mL | MIC (Providencia rettgeri; strain A15167 (first line), read-out: MIC): < 0.0063 µg/mL | MIC (Providencia rettgeri; strain A15167 (second line), read-out: MIC): 0.013 µg/mL (≈ 0.0317 µM) | MIC (Providencia rettgeri; strain A20645, read-out: MIC): 0.4 µg/mL (≈ 0.977 µM) | MIC (Providencia rettgeri; strain A20915, read-out: MIC): 0.8 µg/mL (≈ 1.95 µM) | MIC (Providencia rettgeri; strain A20920, read-out: MIC): < 0.0063 µg/mL | MIC (Providencia rettgeri; strain A20921, read-out: MIC): < 0.0063 µg/mL | MIC (Providencia rettgeri; strain A21205, read-out: MIC): 0.025 µg/mL (≈ 0.0611 µM) | MIC (Providencia rettgeri; strain A21270, read-out: MIC): 0.025 µg/mL (≈ 0.0611 µM) | MIC (Serratia species; (GM) of the Serratia species strains, read-out: Geometric mean of MIC): 44 µg/mL (≈ 107 µM) | MIC (Serratia species; strain 6-330, read-out: MIC): 3.1 µg/mL (≈ 7.57 µM) | MIC (Serratia species; strain 6-427, read-out: MIC): 3.1 µg/mL (≈ 7.57 µM) | MIC (Serratia species; strain 6-920, read-out: MIC): > 50 µg/mL | MIC (Serratia species; strain 7-255, read-out: MIC): > 50 µg/mL | MIC (Serratia species; strain 7-454, read-out: MIC): > 50 µg/mL | MIC (Serratia species; strain 7-2322, read-out: MIC): > 50 µg/mL | MIC (Serratia species; strain 8-185, read-out: MIC): > 50 µg/mL | MIC (Serratia species; strain 8-513, read-out: MIC): 25 µg/mL (≈ 61.1 µM) | MIC (Serratia species; strain 8-785, read-out: MIC): > 50 µg/mL | MIC (Serratia species; strain 8-1537, read-out: MIC): 25 µg/mL (≈ 61.1 µM) | MIC (Serratia species; strain 9-50, read-out: MIC): > 50 µg/mL | MIC (Serratia species; strain 9-690, read-out: MIC): > 50 µg/mL | MIC (Morganella morganii; (GM) of the Morganella morganii strains, read-out: Geometric mean of MIC): 6.3 µg/mL (≈ 15.4 µM) | MIC (Morganella morganii; IFO3843, strain IFO 3843 MS-1, read-out: MIC): 1.6 µg/mL (≈ 3.91 µM) | MIC (Morganella morganii; strain A 9636, read-out: MIC): > 50 µg/mL | MIC (Morganella morganii; strain A20455, read-out: MIC): 1.6 µg/mL (≈ 3.91 µM) | MIC (Enterobacter cloacae; (GM) of the Enterobacter cloacae strains, read-out: Geometric mean of MIC): 17 µg/mL (≈ 41.5 µM) | MIC (Enterobacter cloacae; strain A 9655, read-out: MIC): 50 µg/mL (≈ 122 µM) | MIC (Enterobacter cloacae; strain A 9659, read-out: MIC): > 50 µg/mL | MIC (Enterobacter cloacae; strain A20344, read-out: MIC): > 50 µg/mL | MIC (Enterobacter cloacae; strain A20364, read-out: MIC): 3.1 µg/mL (≈ 7.57 µM) | MIC (Enterobacter cloacae; strain A20464, read-out: MIC): 3.1 µg/mL (≈ 7.57 µM) | MIC (Enterobacter cloacae; strain A20650, read-out: MIC): 0.8 µg/mL (≈ 1.95 µM) | MIC (Enterobacter cloacae; strain A22551, read-out: MIC): > 50 µg/mL | MIC [3]: 0.2 µg/mL (≈ 0.488 µM) | MIC (PCresistant S. aureus): 0.4 µg/mL (≈ 0.977 µM)

Reference: patent publication US4874856A, “3-(substituted)propenyl-7-(aminothiazolylacetamido) ceph-3-em-4-carboxylic acids and esters thereof” (Bristol-Myers Company, priority 1987, dated 1989)
